Legend:
mice [1] = settings: for cocaine's locomotor activation, MAO-B inhibitor combined with cocaine: i.p. for 5 days, cocaine 30 mg/kg i.p., total beam breaks, FIGS. 4G and 4H
Method: Open-Field Test. Open-field assessments were conducted as described (Levine et al., 2011; Maze et al., 2010) with brief modifications. The open field is a square arena with the dimensions 47 cm 3 47 cm with a 38.1 cm high clear plastic wall. Activity chambers were computer interfaced for data sampling. Sixteen infrared photobeams in each direction (16×16), 2.77 cm spacing, were used to record movement. The San Diego PAS software recorded the total number of beam breaks, as well as the beam break's location in the center and peripheral areas.
Mice were divided in 5 groups (n=10-12 each). Each group of mice were injected (i.p.) with either CGP3466B or the MAO-B inhibitors deprenyl, rasagiline, lazabemide, and pargyline for 5 days. Mice were allowed to acclimate to the apparatus for 1 hr. After 60 min, mice received saline or cocaine (30 mg/kg of cocaine i.p.), and were returned to the open-field apparatus for a subsequent 75 min in which their activity was recorded. All data was measured in 5 min intervals and aggregated as necessary. Beam breaks or distance traveled for 20 min following cocaine/saline intraperitoneal injection after the first stage of testing were used to determine immediate peak locomotor response from cocaine injection. In between testing of mice, the arena was wiped with Vimoba cleaning solution. Mice were tested at the same time every day in order to minimize any variation due to circadian rhythm changes.

[2] = biological target: T1, nitrosylation of GAPDH (SNO-GAPDH) (Mus musculus, UniProt P16858); assay: S-nitrosylation biotin switch assay in cocaine-treated primary cortical neurons; format: cell-based; settings: 16 hr, deprenyl 2 nM, FIG. 4A
Source text: S-nitrosvlation biotin switch assay.

striatum = assay: TUNEL assay of cell death in striatum induced by cocaine; format: in vivo, mice; settings: for cocaine induced cell death in striatum: MAO-B inhibitors with cocaine, FIG. 9B
Method: (§1) TUNEL assay. Primary neurons were grown on coverslips with a density of […] per 12-well. Cells were treated with deprenyl (2 μM), rasagaline (10 μM), lazabemide (10 μM) or pargyline (10 μM) for 16 hr and cell death was measured by TUNEL assays using TUNEL enzyme (Roche) and TUNEL label (Roche) following the manufacturer's instructions (Kickstein et al., 2010). To analysis cell death induced by neurotoxic dose of cocaine, we used TUNEL apoptosis detection kit (Millipore) using manufacturer's protocol (Lathia et al., 2010). Positive nuclei were counted in 30 fields (×400) for each slide.

mice [3] = assay: Rotarod performance; format: in vivo; settings: for rotarod performance with cocaine: 5 days: deprenyl 0.25, rasagiline 2.5, pargyline 50, lazabemide 50 mg/kg, then cocaine 50 mg/kg, FIG. 9C
Method: Rotarod Performance. The test was performed as described previously (Xi et al., 2011) with minor modifications. A four-station mouse rotarod device (AccuScan Instruments) was used to study the effects of CGP3466B, Deprenyl, Rasagiline, Lazabemide and Pargyline on cocaine induced operant locomotion in mice. The speed of rotation of the rotarod was increased from 4 to 32 rpm over 7 min.
Mice were divided into 5 groups (n=8). For 5 days prior to testing mice received one dose of deprenyl (0.25 mg/kg), rasagiline (2.5 mg/kg), pargyline (50 mg/kg), lazabemide (50 mg/kg), or saline followed by a high dose of cocaine (50 mg/kg). Mice were placed on the rotarod at a starting speed of 4 rpm, and the speed of the rotarod was increased to 32 rpm over the course of 7 min. This was repeated for a total of three trials in a day, and the latency at which the mice fell off the rotarod was recorded. Mice were tested at the same time every day in order to minimize any variation due to circadian rhythm changes.

GAPDH nitrosylation [4] = biological target: GAPDH nitrosylation (Homo sapiens, UniProt P04406); settings: cited from earlier work; for GAPDH nitrosylation in vitro: as reported earlier (Hara et al., 2006)
GAPDH binding to Siah1 = GAPDH binding to Siah1 (Homo sapiens, UniProt P04406); settings: resultant of prevented GAPDH nitrosylation; cited from earlier work
[5] = system: SUV39H1, H3K9 trimethylation, c-fos; assay: Western blot/ChIP of striatum after behavioral-stimulant cocaine doses (SUV39H1, H3K9 trimethylation, c-fos)
Body weight of mice = format: in vivo; settings: FIG. 8B
GAPDH nitrosylation [6] = biological target: T2, GAPDH nitrosylation (Mus musculus, UniProt P16858); settings: as reported earlier (Hara et al., 2006); cited from earlier work
T2 construct: in the brains of mice treated with the neurotoxic agent; host or cells: mouse brain

[7] = biological target: T1, nitrosylation of GAPDH (SNO-GAPDH); assay: S-nitrosylation biotin switch assay on striatum lysates of cocaine-injected mice
mice [8] = assay: Conditioned place preference; format: in vivo
Method: Conditioned Place Preference. The test was performed as described previously (Levine et al., 2011; Maze et al., 2010; Xi et al., 2011) with minor modifications. Two groups of wild-type mice were used to study the effect of CGP 3466B (0.15 mg/kg) on cocaine-(7 mg/kg) induced conditioned place preference or aversion. A three-chamber place preference apparatus was used. This apparatus consisted of two large side compartments and one small central compartment, which separated the large compartments. Two of the large compartments had different visual and tactile cues. One of the large compartments contained a green wire mesh floor. The second large compartment contained a cream-colored rubber floor. […]
Wild mice were divided into two groups. […] Experimental software (Any-Maze Video Tracking System v. 4.72) measured the amount of time each mouse spent in each of the three compartments.
For the next 10 days (days 2-11), mice entered the conditioning stage of testing with one session per day. […] On the probe trial day (24 hr after the last conditioning session), mice were given an injection of saline then were allowed to freely explore the three compartments for 15 min the time spent in each of the compartments was recorded by computer software. CPP score was calculated as time spent in cocaine chamber minus the time spent in saline/CGP3466B treated chamber.

monoamine oxidase = settings: Hara et al., 2006; cited from earlier work
p53, PUMA = assay: p53 activation and PUMA induction in striatum after neurotoxic cocaine doses; format: in vivo, mice
Method: Sample Preparation from Cocaine-Injected Mice.
Chromatin immunoprecipitation (ChIP) assay.
Co-Immunoprecipitation. Striatum tissue were lysed in lysis buffer (50 mM Tris pH 7.4, 150 mM NaCl, 0.1% Chaps, 100 nM deferoxamine and 1 mM EDTA) and homogenized by passing through a 26-gauge needle. Crude lysates were cleared of insoluble debris by centrifugation at 14,000 g. IP buffer (50 mM Tris pH 7.4, 150 mM NaCl, 0.1% Chaps, 100 μM deferoxamine, 1 mM EDTA and 0.1 mg/ml BSA) was added to […] of cell lysates to bring samples to a total volume of 1 ml. Anti-Siah and anti-SUV39H1 antibody and 30 μl of protein G agarose were added and incubated on a rotator at 4° C. The protein G agarose was washed four times with lysis buffer and quenched with 30 μl of SDS sample buffer. Co-immunoprecipitates were resolved by SDS-PAGE and analyzed by western blotting with anti-GAPDH and anti-SUV39H1 antibodies.

GAPDH = GAPDH (Mus musculus, UniProt P16858); assay: Nuclear translocation of GAPDH in striatum of cocaine-treated mice
primary cortical neurons = settings: TUNEL, 16 hr; deprenyl 2 μM, rasagiline, lazabemide, pargyline 10 μM; FIG. 4B
Method: as §1

T1 sequence (P16858 whole entry): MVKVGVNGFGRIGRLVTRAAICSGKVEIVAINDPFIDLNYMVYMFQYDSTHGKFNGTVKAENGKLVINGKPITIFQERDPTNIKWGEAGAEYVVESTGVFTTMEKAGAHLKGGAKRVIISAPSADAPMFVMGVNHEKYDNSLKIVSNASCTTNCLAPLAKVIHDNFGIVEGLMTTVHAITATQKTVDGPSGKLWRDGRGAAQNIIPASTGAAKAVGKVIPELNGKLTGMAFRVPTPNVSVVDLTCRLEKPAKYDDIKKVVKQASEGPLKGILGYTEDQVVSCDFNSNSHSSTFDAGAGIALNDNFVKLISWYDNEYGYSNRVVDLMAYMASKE
Sequence of GAPDH nitrosylation (Homo sapiens, UniProt P04406) (P04406 whole entry): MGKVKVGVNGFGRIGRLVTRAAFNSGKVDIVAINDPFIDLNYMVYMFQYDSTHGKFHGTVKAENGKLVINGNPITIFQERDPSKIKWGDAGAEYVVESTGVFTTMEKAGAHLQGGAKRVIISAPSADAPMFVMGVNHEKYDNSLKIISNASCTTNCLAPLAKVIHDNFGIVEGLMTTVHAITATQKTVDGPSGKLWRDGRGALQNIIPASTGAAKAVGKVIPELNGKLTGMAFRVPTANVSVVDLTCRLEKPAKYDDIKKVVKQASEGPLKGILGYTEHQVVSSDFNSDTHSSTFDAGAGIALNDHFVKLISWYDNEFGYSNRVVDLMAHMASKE
Sequence of GAPDH (P16858 whole entry): as the sequence (P16858 whole entry) above
T2 sequence (P16858 whole entry): as above
Sequence of GAPDH binding to Siah1 (P04406 whole entry): as the sequence (P04406 whole entry) above

Q: Which results are given for C#CCN[C@@H]1CCc2ccccc21 [rasagiline]?
A: cocaine's locomotor activation, MAO-B inhibitor combined with cocaine (mice [1]): greater locomotor stimulation than cocaine alone; cocaine-induced nitrosylation of GAPDH in cortical cultures [2]: do not prevent; cocaine induced cell death in striatum (striatum): do not rescue; rotarod performance with cocaine (mice [3]): do not improve

Q: Which “cocaine's locomotor activation, MAO-B inhibitor combined with cocaine” value (mice [1]) does the source give for NCCNC(=O)c1ccc(Cl)cn1 [lazabemide] here?
A: The value was “greater locomotor stimulation than cocaine alone”.

Q: What about the “cocaine-induced nitrosylation of GAPDH in cortical cultures” value (shortened to “cocaine-induced nitrosylation of GAPDH”) [2] of the same molecule?
A: The value was “do not prevent”.

Q: What about the “cocaine induced cell death in striatum” value (striatum) of the same molecule?
A: The value was “do not rescue”.

Q: And the “rotarod performance with cocaine” value (mice [3])?
A: The value was “do not improve”.

Q: Which results are given for C#CCN(C)Cc1ccccc1 [pargyline]?
A: cocaine's locomotor activation, MAO-B inhibitor combined with cocaine (mice [1]): greater locomotor stimulation than cocaine alone; cocaine-induced nitrosylation of GAPDH in cortical cultures [2]: do not prevent; cocaine induced cell death in striatum (striatum): do not rescue; rotarod performance with cocaine (mice [3]): do not improve

Q: For C#CCN(C)CC1=Cc2ccccc2Oc2ccccc21 [CGP3466B, N-(dibenz(b,f)oxepin-10-ylmethyl)-N-methyl-N-prop-2-ynylamine], which “GAPDH nitrosylation in vitro” value (GAPDH nitrosylation [4]) is on record?
A: The value was “potently inhibits”.

Q: What about the “concentrations at which nitrosylation of GAPDH is prevented” value (GAPDH nitrosylation [4]) of the same molecule?
A: The value was “subnanomolar”.

Q: What about the “locomotor stimulation by cocaine” value (mice [1]; CGP3466B 0.15 mg/kg IP once a day for 5 days, cocaine on the fifth day, open field, FIG. 3H) of the same molecule?
A: Its value is “substantially reduces”.

Q: What about the basal locomotor activity (mice [1]; CGP3466B 0.15 mg/kg, no cocaine) of the same molecule?
A: The basal locomotor activity was “no effect”.

Q: What about the “central or peripheral movement” value (mice [1]; mouse, in vivo) of the same molecule?
A: Its value is “no adverse effects”.

Q: What about the “locomotor stimulation in nNOS knockout mice treated with cocaine” value (mice [1]; nNOS knockout mice, FIG. 3I) of the same molecule?
A: The value was “does not further decrease”.

Q: And the “cocaine-induced nitrosylation of GAPDH” value [2]?
A: The value was “prevents”.

Q: And the “GAPDH binding to Siah1” value (GAPDH binding to Siah1)?
A: Its value is “inhibition”.

Q: What about the “cocaine-elicited change of H3K9 trimethylation” value ([5]; FIG. 3E) of the same molecule?
A: The value was “prevented”.

Q: And the “degradation of SUV39H1” value ([5]; behavioral-stimulant doses of cocaine, FIG. 3D)?
A: Its value is “blocks”.

Q: And the “stimulation of c-fos expression” value ([5]; behavioral-stimulant doses of cocaine, FIGS. 3F-3G)?
A: The value was “blocks”.

Q: What about the “apoptosis (TUNEL) in striatum induced by cocaine” value (striatum; cocaine 30 and 50 mg/kg, chronic treatment with CGP3466B, FIG. 5F) of the same molecule?
A: Its value is “markedly reduces”.

Q: What about the body weight (Body weight of mice) of the same molecule?
A: The body weight was “no adverse effects”.

Q: What about the “GAPDH nitrosylation in the brains of mice treated with MPTP” value (GAPDH nitrosylation [6]) of the same molecule?
A: Its value is “potently inhibits”.

Q: And the “increase of latency for falling off the rod” value (mice [3]; co-treatment with CGP3466B, cocaine 50 mg/kg, FIG. 5G)?
A: Its value is 2.5- to 3 fold.

Q: What about the “stimulation of GAPDH nitrosylation in striatum elicited by cocaine” value ([7]; 0.15 mg/kg CGP3466B, behavioral-stimulant doses of cocaine (5-30 mg/kg), FIG. 7A) of the same molecule?
A: The value was “almost completely blocks”.

Q: What about the “nitrosylation of GAPDH in the striatum elicited by higher doses of cocaine” value ([7]; cocaine 30-50 mg/kg daily for 5 days with or without CGP3466B, FIG. 5A) of the same molecule?
A: The value was “abolished”.

Q: And the “cocaine preference (conditioned place preference)” value (mice [8]; CGP3466B 0.15 mg/kg 2 hr before each conditioning injection, cocaine 7 mg/kg, FIG. 3J)?
A: Its value is “reduced”.

Q: What about the “conditioned place preference, single dose only on the day of testing” value (mice [8]; mice conditioned in the absence of CGP3466B, FIG. 6D) of the same molecule?
A: Its value is “failed to alter”.

Q: And the “monoamine oxidase inhibitory activity” value (monoamine oxidase)?
A: The value was “lack monoamine oxidase inhibitory activity”.

Q: What about the “induction of PUMA level” value (p53, PUMA; FIG. 5E) of the same molecule?
A: Its value is “blocks”.

Q: What about the “activation of p53” value (p53, PUMA; FIGS. 5C and 5D) of the same molecule?
A: Its value is “blocks”.

Q: And the “cocaine-elicited nuclear translocation of GAPDH” value (GAPDH; behavioral-stimulant doses of cocaine, FIG. 3C)?
A: Its value is “prevents”.

Q: What about the “nuclear translocation of GAPDH at higher doses of cocaine” value (GAPDH; cocaine 30-50 mg/kg daily for 5 days, FIG. 5B) of the same molecule?
A: Its value is “prevented”.

Q: Which “GAPDH nitrosylation in vitro” value (GAPDH nitrosylation [4]) does the source give for C#CCN(C)[C@H](C)Cc1ccccc1 [deprenyl, R-(−)-N-methyl-N-(prop-2-ynyl)-2-aminophenylpropane] here?
A: The value was “potently inhibits”.

Q: And the “cocaine's locomotor activation, MAO-B inhibitor combined with cocaine” value (mice [1])?
A: The value was “significantly decreases”.

Q: And the “cocaine-induced nitrosylation of GAPDH” value [2]?
A: Its value is “prevents”.

Q: And the “cocaine induced cell death in striatum” value (striatum)?
A: The value was “do not rescue”.

Q: And the “GAPDH nitrosylation in the brains of mice treated with MPTP” value (GAPDH nitrosylation [6])?
A: The value was “potently inhibits”.

Q: What about the “cell survival / cell death of primary cortical neurons” value (primary cortical neurons) of the same molecule?
A: The value was “no effect”.

Q: And the “rotarod performance with cocaine” value (mice [3])?
A: The value was “do not improve”.
